Results as given in US20220175761A1, “BI-LIGAND DRUG CONJUGATE AND USE THEREOF” (COHERENT BIOPHARMA (SUZHOU), LIMITED, priority 2019, published 2022).
pIC50: −log10 of the molar value. Numbered stars: 1 amine (or outer) side, 2 acyl side, 3 side chain; on linkers, the order of the positions; unused ones are H or OH. Bridge positions count the residues as written; N and C are the ends. Square brackets hold non-standard residues; d marks the D form. Peptide text beside a SMILES is read from it. I, II: the chains in the order shown. * marks the point of attachment. ξ: configuration not given here. X6 = CCc1c2c(nc3ccc(O)cc13)-c1cc3c(c(=O)n1C2)COC(=O)[C@@]3(CC)OC(=O)OCc1ccc(NC(=O)COCC(=O)NCCOCCOCCOCCOCCOCCn2nncc2CNC(=O)CCCCCN2C(=O)CC(*)C2=O)cc1; EuK = O=C(O)CC[C@H](NC(=O)N[C@@H](CCCCN*)C(=O)O)C(=O)O; Pteroyl = Nc1nc2ncc(CNc3ccc(C(=O)*)cc3)nc2c(=O)[nH]1; Dolaproine = CO[C@@H]([C@@H]1CCCN1)[C@@H](C)C(=O)O; Dil = CC[C@H](C)[C@H](NC)[C@@H](CC(=O)O)OC; X3 = O=C1CC([*:2])C(=O)N1CCCCCC(=O)[*:1]; γGlu = O=C(O)[C@H](CCC(=O)[*:2])N[*:1]; PABC = O=C(OCc1ccc(N[*:1])cc1)[*:2]; X1 = C[C@@H](N*)[C@@H](O)c1ccccc1; X2 = O=C(Cc1ccc(CN[*:1])cc1)[*:2]; NMeV = CN[C@H](C(=O)O)C(C)C; ξCit = NC(=O)NCCCC(N)C(=O)O; CO = O=C([*:1])[*:2]; ξV = CC(C)C(N)C(=O)O; ξC = NC(CS)C(=O)O

How the values were obtained:
[1] = system: KB, T-47D, NCI-H460, CALU-3, HuH-7, and LNCaP tumor cell lines; assay: Inhibition of tumor cell expansion, CCK8 (CB-60S); format: cell-based, human
Procedure: (§1) Cell lines: KB human oral epidermoid carcinoma cells, T-47D human breast cancer cells, NCI-H460 human lung cancer cells, CALU-3 human lung adenocarcinoma cells, HuH-7 human liver cancer cells and LNCaP human prostate cancer cells
The cells were prepared in advance, digested with trypsin, collected and counted; with a complete cell culture medium, KB cells were diluted to 2.0×10^4 cells/ml, T-47D cells were diluted to 1.5×10^4 cells/ml, NCI-H460 cells were diluted to 2.0×10^4 cells/ml, CALU-3 cells were diluted to 3.0×10^4 cells/ml, HuH-7 cells were diluted to 4.0×10^4 cells/ml, and LNCaP cells were diluted to 8.0×10^4 cells/ml; 100 μl of the diluted cell solution was added to each well of 96-well plates; and negative control and blank control wells were set on each plate. The 96-well plates added with the cells were placed in an incubator at 37° C., 5% CO2 for culturing overnight.
The samples were diluted with a culture medium to desired concentrations (see Table 13). […]
(§2) To each well, 15 μl (10% of the liquid volume in a well) of a color developing solution from CCK-8 was added; the plates were incubated at 37° C. for an appropriate time (try to keep the OD value in the range of 1.0-2.0); the covers of the 96-well plates were removed, and the plates were read at 450 nm on a microplate reader (Molecular Devices Spectra MAX Plus). […]

[2] = system: 22RV1 (human prostate cancer cells); assay: Inhibition of cell line proliferation, CCK8; format: cell-based; settings: for IC50 ratio (MMAE/conjugate): 22RV1; for pIC50: 22RV1, 68-72 hours, CCK8
Description: (§3) Since different cells have different sensitivity to a cell proliferation inhibitory toxicity of the payload in a ligand conjugate, the quantitative analysis may be interfered occasionally. A series of cell lines with known expression levels of receptors of different ligands were selected and tested for the response to inhibitory effects of the cell proliferation of a ligand conjugate and a single payload. The IC50 ratio of a single payload to that of a ligand conjugate in same cell line were taken to remove such interference.
(§4) Experimental operations: LNCaP and 22RV1 cells were prepared in advance, counted, and plated in 96-well cell culture plates at a cell density of 4×10^4 cells/ml and 2.0×10^4 cells/ml, respectively (100 μl/well); negative control and blank control wells were set on each plate. After adherent cell culture overnight, the diluted samples to be tested were added at 50 μl/well. The plates were placed in an incubator at 37° C., 5% CO2 and cultured for 68-72 hours. To each well, 15 μl (10% of the liquid volume in a well) of a color developing solution from CCK8 was added; and the plates were incubated at 37° C. for 45-70 minutes and each plate was read at 450 nm on a microplate reader. The data was edited using SoftMax Pro and a 4-P fitting curve was plotted.

FOLH1 = FOLH1 (Homo sapiens, UniProt Q04609); assay: BIAcore T200: binding of FOLH1 to compound-FOLR1 complex; set-up: purchased Sino Biologicals (FOLH1); R&D System (FOLR1) 15877-H07H (FOLH1); 5646-FR (FOLR1)
Chain of FOLH1 (Q04609 44-750 limits assumed): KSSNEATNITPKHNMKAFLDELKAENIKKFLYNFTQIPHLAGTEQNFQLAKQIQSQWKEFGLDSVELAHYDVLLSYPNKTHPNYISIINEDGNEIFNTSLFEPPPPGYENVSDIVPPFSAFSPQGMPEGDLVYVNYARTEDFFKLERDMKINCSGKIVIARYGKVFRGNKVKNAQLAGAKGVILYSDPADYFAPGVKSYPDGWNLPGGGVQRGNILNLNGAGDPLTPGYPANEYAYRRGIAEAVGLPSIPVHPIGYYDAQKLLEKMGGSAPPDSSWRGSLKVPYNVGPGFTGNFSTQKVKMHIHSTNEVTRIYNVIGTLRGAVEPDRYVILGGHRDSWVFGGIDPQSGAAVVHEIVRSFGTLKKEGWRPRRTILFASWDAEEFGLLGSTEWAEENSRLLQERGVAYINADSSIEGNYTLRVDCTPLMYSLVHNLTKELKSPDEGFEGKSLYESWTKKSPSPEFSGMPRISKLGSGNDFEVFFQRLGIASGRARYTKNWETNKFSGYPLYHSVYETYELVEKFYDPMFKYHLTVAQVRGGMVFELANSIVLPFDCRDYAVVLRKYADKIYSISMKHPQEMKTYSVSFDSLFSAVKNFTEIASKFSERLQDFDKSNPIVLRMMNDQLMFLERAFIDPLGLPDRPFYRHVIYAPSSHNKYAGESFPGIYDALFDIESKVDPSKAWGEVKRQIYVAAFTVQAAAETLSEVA
Chain of FOLH1 (P15328 25-233 partner limits assumed): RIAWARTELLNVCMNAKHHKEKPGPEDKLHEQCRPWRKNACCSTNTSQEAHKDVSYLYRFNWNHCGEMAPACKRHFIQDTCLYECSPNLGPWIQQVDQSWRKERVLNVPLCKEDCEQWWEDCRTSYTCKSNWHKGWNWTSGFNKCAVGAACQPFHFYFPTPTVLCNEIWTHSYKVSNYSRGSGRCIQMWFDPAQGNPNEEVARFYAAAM
Description: CM5 chip was conjugated with a ligand: FOLR1 (R&D System, Cat #: 5646-FR)
Analyte: CB-20BK, FA-MMAE and FOLH1 (Sino Biologicals, Cat #: 15877-H07H)
According to BIAcore T200 (GE) operating manual, FOLR1 was conjugated to the CM5 chip; CB-20BK or FA-MMAE was loaded first, and then FOLH1 was loaded; and the binding of FOLH1 to the CB-20BK-FOLR1 complex was detected.

FOLR1 = molecular target: T1, FOLR1 (Homo sapiens, UniProt P15328); assay: BIAcore T200 binding affinity to FOLR1 (CM5 chip conjugated with FOLR1)
T1 construct: purchased R&D System 5646-FR
T1 sequence (P15328 25-233 limits assumed): as the sequence (P15328 25-233 partner limits assumed) above
Description: Buffer: HBS-EP+ buffer 10× (GE, Cat #: BR100669), diluted 10 folds with deionized water before use.
In the experiment, CM5 chip was conjugated with ligand FOLR1 (R&D System, Cat #: 5646-FR).

[3] = system: LNCaP (human prostate cancer cells); assay: Inhibition of cell line proliferation, CCK8; format: cell-based; settings: for IC50 ratio (MMAE/conjugate) / pIC50: LNCaP; for pIC50: 68-72 hours, CCK8
Description: as §3
as §4, with “plotted. […]” for “plotted.”

[4] = system: KB, LNCaP, T-47D, RT4 and NCI-H460 tumor cell lines; assay: Inhibition of tumor cell expansion, CCK8 (CB-10S); format: cell-based, human
Procedure: Cell lines: KB human oral epidermoid carcinoma cells, NCI-H460 human lung cancer cells, RT4 human bladder cancer cells, T-47D human breast cancer cells and LNcap human prostate cancer cells
The cells were prepared in advance, digested with trypsin, collected and counted; with a complete cell culture medium, KB cells were diluted to 3.5×10^4 cells/ml, LNCaP cells were diluted to 8.0×10^4 cells/ml, T-47D cells were diluted to 1.2×10^4 cells/ml, NCI-H460 cells were diluted to 2.5×10^4 cells/ml, and RT4 cells were diluted to 1.2×10^4 cells/ml; to each well of 96-well plates, 100 μl of the diluted cell solution was added; and negative control and blank control wells were set on each plate. The 96-well plates added with the cells were placed in an incubator at 37° C., 5% CO2 for culturing overnight.
The samples were diluted with a culture medium to desired concentrations (see Table 12). […]
as §2

[5] = system: KB, T-47D, NCI-H460, CALU-3, HuH-7, and LNCaP tumor cell lines; assay: Inhibition of tumor cell expansion, CCK8 (CB-60SK); format: cell-based, human
Procedure: as §1
The cells were prepared in advance, digested with trypsin, collected and counted; with a complete cell culture medium, KB cells were diluted to 2.5×10^4 cells/ml, T-47D cells were diluted to 1.3×10^4 cells/ml, NCI-H460 cells were diluted to 3.5×10^4 cells/ml, CALU-3 cells were diluted to 4.0×10^4 cells/ml, HuH-7 cells were diluted to 3.0×10^4 cells/ml, and LNCaP cells were diluted to 8.0×10^4 cells/ml; 100 μl of the diluted cell solution was added to each well; and negative control and blank control wells were set on each plate. The 96-well plates added with the cells were placed in an incubator at 37° C., 5% CO2 for culturing overnight.
The samples were diluted with a culture medium to desired concentrations (see Table 14). […]
as §2

CCc1c2c(nc3ccc(O)cc13)-c1cc3c(c(=O)n1C2)COC(=O)[C@@]3(CC)OC(=O)OCc1ccc(NC(=O)[C@H](CCCNC(N)=O)NC(=O)COCC(=O)NCCOCCOCCOCCOCCOCCn2cc(C[C@H](NC(=O)[C@H](CC(=O)O)NC(=O)[C@H](CC(=O)O)NC(=O)Cc3ccc(CNC(=O)NCCCC[C@H](NC(=O)N[C@@H](CCC(=O)O)C(=O)O)C(=O)O)cc3)C(=O)N[C@@H](CCCCNC(=O)CC[C@H](NC(=O)c3ccc(NCc4cnc5[nH]c(N)nc(=O)c5n4)cc3)C(=O)O)C(N)=O)nn2)cc1 [CB-60S]
inhibitory effect on growth and expansion of tumor cell lines ([1]; 72 hours, CCK-8): has an inhibitory effect
IC50 compared between cell lines ([1]; LNCaP and HuH-7 versus NCI-H460, KB, T-47D and CALU-3): significantly lower

CC[C@@]1(O)C(=O)OCc2c1cc1n(c2=O)Cc2c-1nc1cc(F)c(C)c3c1c2[C@@H](NC(=O)COCNC(=O)CNC(=O)[C@H](Cc1ccccc1)NC(=O)CNC(=O)CNC(=O)CCCCCN1C(=O)CC(SC[C@H](NC(=O)CC[C@H](NC(=O)c2ccc(NCc4cnc5[nH]c(N)nc(=O)c5n4)cc2)C(=O)O)C(=O)N[C@@H](CCCCN)C(N)=O)C1=O)CC3 (some centres unmarked) [FA-MMAE, reference compound]
IC50 ratio (MMAE/conjugate) [2]: 0.006
pIC50 [2]: 6.00
Binding of compound-FOLR1 complex to FOLH1 solution (FOLH1; FOLH1 concentration 0.0625 μM): −1 RU
Binding of compound-FOLR1 complex to FOLH1 solution (FOLH1; FOLH1 concentration 0.125 μM): 4.2 RU
Binding of compound-FOLR1 complex to FOLH1 solution (FOLH1; FOLH1 concentration 0.25 μM): 8.4 RU
Binding of compound-FOLR1 complex to FOLH1 solution (FOLH1; FOLH1 concentration 0.5 μM): 9.8 RU
amount of FOLH1 bound to compound-FOLR1 complex (in words) (FOLH1; FOLH1 solution at a high concentration): tends to saturate at a high concentration
kd (FOLR1; FOLR1 on CM5 chip, N/D = no specific binding was detected): 0.000115 s⁻¹
kon (FOLR1; read-out: ka): 1.79e+06 M⁻¹ s⁻¹
IC50 ratio (MMAE/conjugate) [3]: 0.010
IC50 ratio in LNCaP relative to IC50 ratio in 22RV1 (times higher / factor) ([3]; LNCaP versus 22RV1): 1.5
pIC50 [3]: 6.58

CCc1c2c(nc3ccc(O)cc13)-c1cc3c(c(=O)n1C2)COC(=O)[C@@]3(CC)OC(=O)OCc1ccc(NC(=O)COCC(=O)NCCOCCOCCOCCOCCOCCn2nncc2CNC(=O)CCCCCN2C(=O)CC(SC[C@H](NC(=O)CC[C@H](NC(=O)c3ccc(NCc4cnc5[nH]c(N)nc(=O)c5n4)cc3)C(=O)O)C(=O)N[C@@H](CCCCN)C(=O)N[C@@H](CCC(=O)O)C(=O)N[C@@H](Cc3ccccc3)C(=O)N[C@@H](CC(C)C)C(=O)N[C@@H](Cc3cnc[nH]3)C(=O)N3CCC[C@H]3C(=O)N[C@@H](CO)C(=O)N[C@@H](CCCCN)C(=O)NC(C(=O)N[C@@H](CC(=O)O)C(=O)N[C@@H](CC(C)C)C(=O)N3CCC[C@H]3C(=O)N[C@@H](CCCNC(=N)N)C(=O)O)C(C)C)C2=O)cc1 (some centres unmarked) [CB-10S] ({Pteroyl-γGlu}-C(X6)KEFLHPSK[ξV]DLPR-OH)
inhibitory effect on growth and expansion of tumor cell lines ([4]; 72 hours, CCK-8): has an inhibitory effect
IC50 compared between cell lines ([4]; KB, LNcap, T-47D and RT4 versus NCI-H460): significantly lower

CCc1c2c(nc3ccc(O)cc13)-c1cc3c(c(=O)n1C2)COC(=O)[C@@]3(CC)OC(=O)OCc1ccc(NC(=O)[C@H](CCCNC(N)=O)NC(=O)COCC(=O)NCCOCCOCCOCCOCCOCCn2cc(C[C@H](NC(=O)[C@H](CCCCN)NC(=O)[C@H](CC(=O)O)NC(=O)[C@H](CC(=O)O)NC(=O)Cc3ccc(CNC(=O)NCCCC[C@H](NC(=O)N[C@@H](CCC(=O)O)C(=O)O)C(=O)O)cc3)C(=O)N[C@@H](CCCCNC(=O)CC[C@H](NC(=O)c3ccc(NCc4cnc5[nH]c(N)nc(=O)c5n4)cc3)C(=O)O)C(N)=O)nn2)cc1 [CB-60SK]
inhibitory effect on growth and expansion of tumor cell lines ([5]; 72 hours, CCK-8): has an inhibitory effect
IC50 compared between cell lines ([5]; LNCaP and HuH-7 versus T-47D, NCI-H460, CALU-3 and KB): significantly lower

CC[C@H](C)[C@@H]([C@@H](CC(=O)N1CCC[C@H]1[C@H](OC)[C@@H](C)C(=O)N[C@H](C)[C@@H](O)c1ccccc1)OC)N(C)C(=O)[C@@H](NC(=O)[C@H](C(C)C)N(C)C(=O)OCc1ccc(NC(=O)C(CCCNC(N)=O)NC(=O)[C@@H](NC(=O)CCCCCN2C(=O)CC(SCC(NC(=O)[C@H](CCCCN)NC(=O)[C@H](CC(=O)O)NC(=O)[C@H](CC(=O)O)NC(=O)Cc3ccc(CNC(=O)NCCCC[C@H](NC(=O)N[C@@H](CCC(=O)O)C(=O)O)C(=O)O)cc3)C(N)=O)C2=O)C(C)C)cc1)C(C)C (some centres unmarked) [CB-20AK, reference compound] (I: V[ξCit][PABC][NMeV]V[Dil][Dolaproine]-X1 / II: {EuK-CO}-[X2]DDK[ξC]-NH2; linker I:N-II:5 via X3)
IC50 ratio (MMAE/conjugate) [2]: 0.006
pIC50 [2]: 5.98
specific binding to FOLR1 (in words) (FOLR1; BIAcore T200): has not been detected to specifically bind to FOLR1
IC50 ratio (MMAE/conjugate) [3]: 0.025
pIC50 [3]: 6.99
